The numbers were not newly measured in patent US5730986A (priority 1995, dated 1998), which cites them from elsewhere.

The conditions of data set [1]: in vivo.
For another data set, the system named is pepsinogen. Particulars: rat stomach.

As for `C/C=C(\C)C(=O)O[C@H]1C[C@@H](OC(C)=O)[C@@]2(C(=O)OC)CO[C@H]3[C@@H](O)[C@@](C)([C@]45O[C@@]4(C)[C@H]4C[C@@H]5O[C@@H]5OC=C[C@@]54O)[C@H]4[C@]1(CO[C@]4(O)C(=O)OC)[C@@H]32` [Azadirachtin], the “inhibition of the development of malarial parasites” value with malarial parasites was “inhibitory to the development of malarial parasites”. In the data set with insects, the pesticide properties result was “phagorepellent, antifeadent and systemic growth disruptor properties in insects”. Besides, the activity against larva result in the data set with larva of P. xylostella L was “active against larva of P. xylostella L”.

With `[Mg+2].[OH-].[OH-]` [Mg(OH)2], the adverse reactions result in data set [1] is given as “loose stools or diarrhea”.

In the case of `CN/C(=N/CCSCc1nc[nH]c1C)NC#N` [cimetidine], the “inhibition of cytochrome P450-catalyzed drug oxidation and hydroxylation of estradiol” value in the data set on cytochrome P450 was “inhibits cytochrome P450 -catalyzed drug oxidation and hydroxylation of estradiol”.

`COc1ccc2[nH]c([S+]([O-])Cc3ncc(C)c(OC)c3C)nc2c1` (stereo not drawn) [omeprazole]: the “secretion, synthesis and gene expression of pepsinogen” value in the data set with pepsinogen is “reduces the secretion, synthesis and gene expression of pepsinogen”.
